Data set [1] is described as follows: Stability in artificial gastric juice environment (HPLC). The note with it: 37° C.
Protocol: The samples were dissolved in 500 μL of chromatographic methanol, into which were added 1500 μL of artificial gastric juice, mixed well and then dissolved completely by ultrasound. 50 μL of the above solutions were aspirated precisely, diluted by adding 200 μL of chromatographic methanol, filtered and analyzed by HPLC, wherein the HPLC analysis conditions were mobile phase: 65% methanol -35% water, flow rate: 0.8 mL/min, and column temperature: 25° C., and the initial peak areas were recorded. The above solutions were placed on a constant temperature water bath at 37° C., sampled at 8 h, 16 h and 24 h respectively, and analyzed by HPLC. By calculating the peak areas respectively, the stability data of the corresponding samples in artificial gastric juice environment at 8 h, 16 h and 24 h can be obtained.
For data set [2], the target named is T1, NLRP3 inflammasome (Mus musculus, UniProt Q8R4B8).
T1 construct: endogenous in cells; host or cells: primary bone marrow-derived macrophages (BMDMs) from female C57BL/6 mice, differentiated with rmM-CSF
The data set is described as follows: Inhibition of LPS and ATP induced NLRP3 inflammasome activation in BMDMs (IL-1β level). Format: cell-based, C57BL/6 mice. To be noted: read-out: IC50, inhibitory effect on activation of NLRP3 inflammasome. An excerpt:
NLRP3 is an important pattern recognition receptor, that can form the NLRP3 inflammasome through the adaptor ASC and pro-caspase-1. After activation, the NLRP3 inflammasome can mediate the activation of caspase-1, thus promoting the maturation and secretion of IL-1β. In order to determine whether the prepared guaianolide sesquiterpene lactone Compounds 1-8 can inhibit the activation of the NLRP3 inflammasome, we used LPS and ATP to induce the activation of the NLRP3 inflammasome, and observed the effects of Compounds 1-8 on the IL-1β level caused by NLRP3 inflammasome activation.
C57BL/6 mice were sacrificed by cervical dislocation, and then soaked in 75% alcohol for 5-10 min. Subsequently, two hind legs of the mice were cut off with scissors. Next, the meat was removed, and the leg bones were left, which were then washed with PBS for three times. After severing the bone at both ends, a sterile syringe filled with cold serum-free RPMI 1640 medium was used to flush the bone marrow into a 15 mL centrifuge tube. Subsequently, the bone marrow was centrifuged at 1500 rpm for 5 min, and the supernatant was discarded. The residue was resuspended with 1 mL of erythrocyte lysate, blown repeatedly, and then stood for 7 min to lyse erythrocytes. After centrifugation at 1500 rpm for 5 min, the supernatant was discarded. The residue was resuspended with the RPMI 1640 medium containing 100 ng/ml of rmM-CSF, and then transferred to a 6-well culture plate for culture.
The BMDMs were seeded on 6-well cell culture plates and then treated with 100 ng/ml ultrapure LPS for 3 h. […] Subsequently, the cells were stimulated with 5 mM ATP for 45 min. The supernatants were collected into 1.5 mL EP tubes for subsequent detection of IL-1β level.

The nature of data set [3]: Solubility test in water. Format: physicochemical. To be noted: thermodynamic from solid; deionized water, 37° C. On the procedure:
Saturated solutions were formulated, filtered and analyzed by HPLC with a sample volume of 1 μL, 3 μL, 5 μL, 10 μL, 15 µL and 20 μL sequentially, and the standard curves of the corresponding compounds were drawn.
[…] of the above compounds were formulated, dissolved by ultrasound for 4 h, and placed on a water bath at 37° C. to stand for 1 h. The resulting unsaturated solutions were centrifuged. 30 μL of supernatants were removed, diluted by adding 200 μL of deionized water, and then filtered.

Data set [4] relates to mouse acute liver injury model. The data set is described as follows: Mouse acute liver injury model (CCl4). The class given is in vivo, C57BL/6 mice. On the procedure: The mice were randomly divided into 8 groups, one of which was randomly selected as the normal group, and the other 7 groups were the model group, the parent drug 1 (0.4 and 4 μmol/kg), the hydrochloride 22 (4 μmol/kg), and the fumarate 23 (0.4 and 4 μmol/kg) groups, respectively, with 6 mice in each group. In addition to the normal group injected with 10 mL olive oil/kg, the other mice were injected intraperitoneally with 0.5 mL CCl4+9.5 mL olive oil/kg weight, i.e., the ratio of CCl4 to olive oil was 1:19. […] The mice in the normal group and model group were administered intragastrically the same volume of the solvent 0.5% CMC-Na.
1 h after the last administration, blood was collected from the venous plexus of fundus oculi, stood at room temperature for 2 h, and centrifuged at 3000 rpm for 20 min. The serum was aspirated, aliquoted, and frozen at −70° C. for subsequent use. After blood collection, the mice were sacrificed by cervical dislocation, and the abdominal cavity was opened. The livers were taken out, and rinsed twice with pre-cooled PBS. The liver left lobe tissues of the mice were cut, and fixed with 4% paraformaldehyde for 24-48 h. The remaining tissues were frozen at −70° C. for subsequent use.
μL of each sample was taken for experiments. The levels of AST and ALT in the serum of mice were detected according to the operation manual. The absorbance value was detected at the wavelength of 510 nm by a microplate reader, and the sample concentration (U/L) was calculated according to the standard curve.
The extraction method of total RNA from tissues, cDNA synthesis and the PCR amplification method are the same as those in Example 4.

Converted amounts (≈) assume the structure as drawn. Where only a bound is given, the exact number is not on record here.

T1 sequence (Q8R4B8 whole entry): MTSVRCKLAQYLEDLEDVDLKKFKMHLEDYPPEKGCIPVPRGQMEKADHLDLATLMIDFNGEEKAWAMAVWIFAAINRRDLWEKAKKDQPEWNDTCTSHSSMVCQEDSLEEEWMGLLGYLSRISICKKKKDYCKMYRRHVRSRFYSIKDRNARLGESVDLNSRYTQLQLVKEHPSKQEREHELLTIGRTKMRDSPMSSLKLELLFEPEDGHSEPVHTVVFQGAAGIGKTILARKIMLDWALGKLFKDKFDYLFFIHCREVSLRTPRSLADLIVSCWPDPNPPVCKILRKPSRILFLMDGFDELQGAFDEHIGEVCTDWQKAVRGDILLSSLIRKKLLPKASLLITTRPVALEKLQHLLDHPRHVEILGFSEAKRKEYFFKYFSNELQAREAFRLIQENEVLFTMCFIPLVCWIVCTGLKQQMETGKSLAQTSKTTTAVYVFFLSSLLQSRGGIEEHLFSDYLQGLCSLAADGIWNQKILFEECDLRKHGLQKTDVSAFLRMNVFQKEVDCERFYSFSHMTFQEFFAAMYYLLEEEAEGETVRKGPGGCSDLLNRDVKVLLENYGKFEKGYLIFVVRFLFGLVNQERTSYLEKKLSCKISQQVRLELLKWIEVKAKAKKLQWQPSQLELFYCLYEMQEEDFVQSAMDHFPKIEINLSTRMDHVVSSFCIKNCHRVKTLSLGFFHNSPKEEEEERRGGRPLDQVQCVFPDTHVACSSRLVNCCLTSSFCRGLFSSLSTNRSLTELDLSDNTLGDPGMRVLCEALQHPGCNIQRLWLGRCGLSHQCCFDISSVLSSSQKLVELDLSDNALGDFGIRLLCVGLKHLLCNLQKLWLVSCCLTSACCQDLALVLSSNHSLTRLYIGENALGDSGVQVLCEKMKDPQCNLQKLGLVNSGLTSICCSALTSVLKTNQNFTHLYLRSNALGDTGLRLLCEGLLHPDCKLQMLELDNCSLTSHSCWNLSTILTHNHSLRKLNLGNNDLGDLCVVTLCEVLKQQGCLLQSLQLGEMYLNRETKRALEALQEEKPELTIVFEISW

Consider `C=C1C(=O)O[C@@H]2[C@H]3C(C)=CC[C@]34C[C@]4(C)CC[C@@H]12` [Compound 2], for which, in data set [1], the “Non-degradation percentage at 8 h” value is recorded as 90.92%, the “Non-degradation percentage at 16 h” value is listed as 86.62% and the “Non-degradation percentage at 24 h” value is recorded as 78.26%. Also, in data set [2], the IC50 (usually the concentration at which inhibition is half-maximal) is less than 40 nM. The amount in solution in data set [3] (solubility) came to 0.0008 mg/mL (≈ 0.00327 mM).
The like results for `C=C1C(=O)O[C@H]2[C@H]1CC[C@@]1(C)C[C@]13C[C@@H](O)[C@@](C)(OC)[C@H]23` [Compound 3] were, in that order, 99.98%, 99.87%, 97.77%, less than 40 nM and 0.0355 mg/mL (≈ 0.121 mM).
Regarding `C=C1C(=O)O[C@H]2[C@H]1CC[C@@]1(C)C[C@]13C[C@@H](O)[C@@](C)(O)[C@H]23` [Compound 4], in data set [1], the “Non-degradation percentage at 8 h” value is recorded as 98.15%, the “Non-degradation percentage at 16 h” value is on record as 96.84% and the “Non-degradation percentage at 24 h” value was found to be 96.21%. Moreover, the IC50 in data set [2] is less than 40 nM. In data set [3], the concentration in solution (solubility) was 0.101 mg/mL (≈ 0.362 mM).
For `C=C1C(=O)O[C@@H]2[C@@H]3[C@]4(CC[C@@]3(C)F)C[C@]4(C)CC[C@@H]12` [Compound 5] the same measures were 99.91%, 99.85%, 99.84%, less than 40 nM and 0.0259 mg/mL (≈ 0.0979 mM).
`C=C1C(=O)O[C@@H]2C3=C(C)CC[C@]34C[C@]4(C)CC[C@@H]12` [Compound 6]: in data set [1], the “Non-degradation percentage at 8 h” value was found to be 99.89%, the “Non-degradation percentage at 16 h” value was determined as 96.80% and the “Non-degradation percentage at 24 h” value is on record as 95.72%. The IC50 in data set [2] is less than 40 nM. The solubility (commonly the dissolved amount per volume that the medium holds) in data set [3] was 0.00258 mg/mL (≈ 0.0106 mM).
As for `C=C1C(=O)O[C@@H]2[C@@H]3[C@]4(CC[C@@]3(C)OC(=O)CC)C[C@]4(C)CC[C@@H]12` [Compound 7], in data set [1], the “Non-degradation percentage at 8 h” value is reported as 99.31%, the “Non-degradation percentage at 16 h” value amounted to 97.85% and the “Non-degradation percentage at 24 h” value is given as 97.65%. Moreover, the IC50 in data set [2] was less than 40 nM. In data set [3], the solubility stood at 0.0177 mg/mL (≈ 0.0555 mM).
For `C=C1C(=O)O[C@@H]2[C@@H]3[C@]4(CC[C@@]3(C)OC)C[C@]4(C)CC[C@@H]12` [Compound 8] the same measures were 98.36%, 95.58%, 94.08%, less than 40 nM and 0.00852 mg/mL (≈ 0.0308 mM).
Consider `CC1=CC[C@@]23C[C@]2(C)CC[C@@H]2[C@H](OC(=O)[C@H]2CN(C)C)[C@@H]13` [Compound 24], for which the half-maximal inhibitory concentration (IC50) in data set [2] was 40 to 80 nM. The molecule also gave a solubility in data set [3] of 96.6 mg/mL (≈ 334 mM).
For `CO[C@]1(C)[C@H](O)C[C@@]23C[C@]2(C)CC[C@@H]2[C@H](OC(=O)[C@H]2CN(C)C)[C@@H]13` [Compound 25] the same measures were 40 to 80 nM and 221 mg/mL (≈ 654 mM).
The like results for `CN(C)C[C@@H]1C(=O)O[C@H]2[C@H]1CC[C@@]1(C)C[C@]13C[C@@H](O)[C@@](C)(O)[C@H]23` [Compound 26] were, in that order, 40 to 80 nM and 248 mg/mL (≈ 768 mM).
Regarding `CN(C)C[C@@H]1C(=O)O[C@H]2[C@H]1CC[C@@]1(C)C[C@]13CC[C@@](C)(F)[C@H]23` [Compound 27], in data set [2], the IC50 fell in the range of 40 to 80 nM. In addition, the solubility in data set [3] stood at 208 mg/mL (≈ 674 mM).
Turning to `CC1=CC[C@@]23C[C@]2(C)CC[C@H]2[C@H](CN(C)C)C(=O)O[C@@H]2C13` (some centres unmarked) [Compound 28], the IC50 in data set [2] fell in the range of 80 to 100 nM. Also, in data set [3], the solubility came to 120 mg/mL (≈ 416 mM).
With `CCC(=O)O[C@]1(C)CC[C@@]23C[C@]2(C)CC[C@@H]2[C@H](OC(=O)[C@H]2CN(C)C)[C@H]31` [Compound 29], the IC50 in data set [2] lay in the range of 40 to 80 nM. In data set [3], the solubility came out at 195 mg/mL (≈ 535 mM).
As to `COc1cc(C2Oc3cc([C@H]4Oc5cc(O)cc(O)c5C(=O)[C@@H]4O)ccc3OC2CO)ccc1O` (some centres unmarked) [Silybin, reference compound], in data set [4] (liver, 400 μmol/kg), the “Acta2 mRNA expression” value stood at 2.91, the “Col1a1 mRNA expression” value is recorded as 1.84 and the “Tgfb1 mRNA expression” value is reported as 1.11. Also, the ALT in data set [4] (serum, 4 μmol/kg) was 121.58 U/L. In data set [4] (serum, 400 μmol/kg), the AST amounted to 301.45 U/L.
In the case of `C=C1CC[C@H]2C(=C)CC[C@H]3C(=C)C(=O)O[C@@H]3[C@@H]12` [dehydrocostus lactone, reference compound], in data set [1], the “Non-degradation percentage at 8 h” value is 68.91%, the “Non-degradation percentage at 16 h” value turned out to be 65.42% and the “Non-degradation percentage at 24 h” value was 57.86%. In data set [3], the solubility was found to be 44.8 mg/mL (≈ 195 mM).

Values taken from patent publication US20240124409A1, “GUAIANOLIDE SESQUITERPENE LACTONE DERIVATIVES AND PHARMACEUTICAL USE THEREOF” (NANJING UNIVERSITY OF CHINESE MEDICINE, priority 2021, published 2024).
